System: pancreatic islet
Assay: Impedance analysis of a pancreatic islet for insulin exocytosis (single frequency, real-time)
Format: cell-based
From the text: In one embodiment, the method can be used to measure exocytosis of a molecule from an islet of cells. […] In one embodiment, islets can be modeled by 4 passive elements as in the equivalent electric circuit, where RMEM and CMEM represent the sum of the plasma membrane (MEM) resistances (R) and capacitances (C), and RCYT and RINT represent the sum of cytosolic (CYT) and intercellular space (INT) resistances, for all cells in the islet, respectively (FIG. 1B). AC currents applied across a whole islet result in voltage drops across these 4 elements, which are dependent, in part, on the AC frequency and the impedance (Z) of these elements (V=I(ZR(MEM+CYT+INT)+ZC(MEM)). ZC(MEM) and ZR(MEM) are generally sensitive to the level of an applied secretagogue (e.g., glucose), which at stimulatory levels decrease the RMEM, via opening of ion channels, and increase CMEM, via surface area increase reflective of exocytosis. Separation of the measured AC voltage into real (in phase with current) and imaginary (out of phase with current) components for 2 different frequencies can provide direct determination of RMEM, CMEM, RCYT and RINT through generation of 4 separate equations.
In order to optimize the resolution for monitoring changes in CMEM, an appropriate AC current can be applied at selected frequencies where the measured voltage drop across CMEM is readily detectable (e.g., where the measured voltage drop cross CMEM changes the most) during exocytosis. […] CIP can provide visualization of the changes in plasma membrane capacitance (PMc) over the range of applied frequencies, and thus the frequencies (e.g., 2 frequencies) at which the largest changes (e.g., the two largest changes) in plasma membrane capacitance can be determined as optimal AC frequencies.
The two optimal AC frequencies are then applied simultaneously to islets, e.g., according to the block diagram in FIG. 2. […] The computer can be used to compute, track and store the values of the passive elements of the equivalent circuit corresponding to the islet being measured. […]

## [Cl-].[K+] [KCl, potassium chloride]
25 mM KCl, before vs after addition, one frequency, FIG. 3
  exocytosis of insulin from cells in the islet (shift in complex impedance plot): substantial exocytosis of insulin
KCl final concentration 25 mM, single frequency ~1250 Hz, time series, FIG. 4B
  change in whole islet capacitance (imaginary component of impedance): immediate change in whole islet capacitance
KCl final concentration 25 mM, single frequency, time series, FIG. 4A
  change in whole islet resistance (real component of impedance): not whole islet resistance
